According to patent US11634425B2, “Pharmaceutical compounds” (priority 2019, dated 2023):
Read-outs that look alike come from different tables or passages of the source.

Key:
RSV A2 = assay: RSV plaque reduction assay; type: cell-based, respiratory syncytial virus (RSV); details: human respiratory syncytial virus, HepG2, Hep-G2 cells, mean of at least two experiments
Outline: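 EC50 is the 50% reduction in immunostained plaque count versus virus-control wells, interpolated from variable-slope 4-parameter fits and averaged over at least two runs. Hep-G2 cells were infected with 100 PFU/well RSV A2 premixed with compound, with the inoculum removed after 2 h. Incubation continued at 37 °C for 2 days under a CMC overlay with compound.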

Cell cytotoxicity (CC50) = type: cell-based; details: human; mean of at least two experiments
Outline: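 Values are means of ≥2 independent runs, rounded to whole units, from 4-parameter variable-slope curve fits. Toxicity measured in Hep-G2 cells run alongside RSV plaque-reduction assays.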

in vitro = in vitro ADME; details: microsomes, pH 7.4, 1 μM compound, 0.5 mg/mL protein, read-out: Liver Microsomal Stability t1/2
Protocol: Compounds were subjected to the following assays to investigate liver microsomal stability and hepatocyte stability.
Microsomal Incubation: Experimental Procedure
Pooled liver microsomes were purchased from a reputable commercial supplier and stored at −80° C. prior to use. Microsomes (final protein concentration 0.5 mg/mL), 0.1 M phosphate buffer pH 7.4 and test compound (final substrate concentration 1 μM; final DMSO concentration 0.25%) were pre-incubated at 37° C. prior to the addition of NADPH (final concentration 1 mM) to initiate the reaction. The final incubation volume was 50 μL. A control incubation was included for each compound tested where 0.1 M phosphate buffer pH 7.4 was added instead of NADPH (minus NADPH). Two control compounds were included with each species. All incubations were performed singularly for each test compound. Each compound was incubated for 0, 5, 15, 30 and 45 min. The control (minus NADPH) was incubated for 45 min only. The reactions were stopped by transferring incubate into acetonitrile at the appropriate time points, in a 1:3 ratio. The termination plates are centrifuged at 3,000 rpm for 20 min at 4° C. to precipitate the protein. Following protein precipitation, the sample supernatants were combined in cassettes of up to 4 compounds, internal standard added, and samples analysed by LC-MS/MS. From a plot of ln peak area ratio (compound peak area/internal standard peak area) against time, the gradient of the line was determined. Subsequently, half-life (t1/2) and intrinsic clearance (CLint) were calculated.

Q: For `CN1C[C@@H]2C[C@H]1CN2c1ccc2nc(-c3ccccc3)c(C(=O)N[C@H]3N=C(c4ccccc4)c4cccc(F)c4NC3=O)n2n1` [Example 80, N-[(3S)-9-fluoro-2-oxo-5-phenyl-1,3-dihydro-1,4-benzodiazepin-3-yl]-6-[(1S,4S)-5-methyl-2,5-diazabicyclo[2.2.1]heptan-2-yl]-2-phenylimidazo[1,2-b]pyridazine-3-carboxamide], which EC50 (RSV A2) is on record?
A: 51 nM

Q: And the CC50 (Cell cytotoxicity (CC50))?
A: 13800 nM

Q: And the half-life at 1 μM (in vitro; dog)?
A: 2.98 h

Q: And the half-life at 1 μM (in vitro; human)?
A: 2.4 h

Q: What about the half-life at 1 μM (in vitro; rat) of the same molecule?
A: 1.9 h

Q: Which EC50 (RSV A2) does the source give for `O=C(N[C@H]1N=C(c2ccccc2)c2cccc(F)c2NC1=O)c1c(-c2ccc(N3CCOCC3)nc2)nn2cccnc12` [Example 72, N-[(3S)-9-fluoro-2-oxo-5-phenyl-1,3-dihydro-1,4-benzodiazepin-3-yl]-2-(6-morpholin-4-ylpyridin-3-yl)pyrazolo[1,5-a]pyrimidine-3-carboxamide] here?
A: 118 nM

Q: What about the CC50 (Cell cytotoxicity (CC50)) of the same molecule?
A: > 25000 nM

Q: And the half-life at 1 μM (in vitro; dog)?
A: 0.857 h

Q: And the half-life at 1 μM (in vitro; human)?
A: 3 h

Q: And the half-life at 1 μM (in vitro; rat)?
A: 2.63 h

Q: Which results are given for `Cc1cnc(F)c(-c2nn3cccnc3c2C(=O)N[C@H]2N=C(c3ccccc3)c3cccc(F)c3NC2=O)c1` [Example 32, 2-(2-Fluoro-5-methylpyridin-3-yl)-N-[(3S)-9-fluoro-2-oxo-5-phenyl-1,3-dihydro-1,4-benzodiazepin-3-yl]pyrazolo[1,5-a]pyrimidine-3-carboxamide]?
A: EC50 (RSV A2): 86 nM; CC50 (Cell cytotoxicity (CC50)): > 25000 nM; half-life at 1 μM (in vitro; dog): 3.78 h; half-life at 1 μM (in vitro; human): 5.58 h; half-life at 1 μM (in vitro; rat): 1.28 h

Q: For `O=C(N[C@H]1N=C(c2ccccc2)c2cccc(F)c2NC1=O)c1c(-c2ccc(F)cc2F)nn2cccnc12` [Example 5, 2-(2,4-Difluorophenyl)-N-[(3S)-9-fluoro-2-oxo-5-phenyl-1,3-dihydro-1,4-benzodiazepin-3-yl]pyrazolo[1,5-a]pyrimidine-3-carboxamide], which EC50 (RSV A2) is on record?
A: 39 nM

Q: And the CC50 (Cell cytotoxicity (CC50))?
A: > 25000 nM

Q: And the half-life at 1 μM (in vitro; dog)?
A: 5.93 h

Q: And the half-life at 1 μM (in vitro; human)?
A: > 2.33 h

Q: What about the half-life at 1 μM (in vitro; rat) of the same molecule?
A: > 2.33 h

Q: With `CC(C)Nc1ccc(-c2nn3cccnc3c2C(=O)N[C@H]2N=C(c3ccccc3)c3cccc(F)c3NC2=O)c(F)n1` [Example 70, N-[(3S)-9-Fluoro-2-oxo-5-phenyl-1,3-dihydro-1,4-benzodiazepin-3-yl]-2-[2-fluoro-6-(propan-2-ylamino)pyridin-3-yl]pyrazolo[1,5-a]pyrimidine-3-carboxamide] as the molecule, how does the EC50 (RSV A2) read?
A: 23 nM

Q: And the CC50 (Cell cytotoxicity (CC50))?
A: > 25000 nM

Q: What about the half-life at 1 μM (in vitro; dog) of the same molecule?
A: 0.525 h

Q: What about the half-life at 1 μM (in vitro; human) of the same molecule?
A: 3.45 h

Q: What about the half-life at 1 μM (in vitro; rat) of the same molecule?
A: 1.65 h

Q: For `O=C(N[C@H]1N=C(c2ccccc2)c2cccc(F)c2NC1=O)c1c(-c2ccc(F)cc2F)nc2cccnn12` [Example 89, 2-(2,4-Difluorophenyl)-N-[(3S)-9-fluoro-2-oxo-5-phenyl-1,3-dihydro-1,4-benzodiazepin-3-yl]imidazo[1,2-b]pyridazine-3-carboxamide], which EC50 (RSV A2) is on record?
A: 19 nM

Q: What about the CC50 (Cell cytotoxicity (CC50)) of the same molecule?
A: > 25000 nM

Q: And the half-life at 1 μM (in vitro; dog)?
A: 18 h

Q: What about the half-life at 1 μM (in vitro; human) of the same molecule?
A: 12.3 h

Q: What about the half-life at 1 μM (in vitro; rat) of the same molecule?
A: 3.1 h

Q: For `O=C(N[C@H]1N=C(c2ccccc2)c2ccccc2NC1=O)c1c(-c2ccccc2)nc2cccnn12` [Example 87, N-[(3S)-2-oxo-5-phenyl-1,3-dihydro-1,4-benzodiazepin-3-yl]-2-phenylimidazo[1,2-b]pyridazine-3-carboxamide], which EC50 (RSV A2) is on record?
A: 53 nM

Q: And the CC50 (Cell cytotoxicity (CC50))?
A: > 25000 nM

Q: What about the half-life at 1 μM (in vitro; dog) of the same molecule?
A: 1.12 h

Q: And the half-life at 1 μM (in vitro; human)?
A: 68.8 h

Q: What about the half-life at 1 μM (in vitro; rat) of the same molecule?
A: 1.43 h

Q: For `O=C(N[C@H]1N=C(c2ccccc2)c2ccccc2NC1=O)c1c(-c2cncc(Cl)c2)nn2cccnc12` [Example 27, 2-(5-Chloropyridin-3-yl)-N-[(3S)-2-oxo-5-phenyl-1,3-dihydro-1,4-benzodiazepin-3-yl]pyrazolo[1,5-a]pyrimidine-3-carboxamide], which EC50 (RSV A2) is on record?
A: 61 nM

Q: And the CC50 (Cell cytotoxicity (CC50))?
A: > 25000 nM

Q: What about the half-life at 1 μM (in vitro; dog) of the same molecule?
A: 0.997 h

Q: What about the half-life at 1 μM (in vitro; human) of the same molecule?
A: 2.03 h

Q: What about the half-life at 1 μM (in vitro; rat) of the same molecule?
A: 8.75 h

Q: Which results are given for `CCc1ccc(-c2nn3cccnc3c2C(=O)N[C@H]2N=C(c3ccccc3)c3ccccc3NC2=O)cn1` [Example 54, 2-(6-Ethylpyridin-3-yl)-N-[(3S)-2-oxo-5-phenyl-1,3-dihydro-1,4-benzodiazepin-3-yl]pyrazolo[1,5-a]pyrimidine-3-carboxamide]?
A: EC50 (RSV A2): 151 nM; CC50 (Cell cytotoxicity (CC50)): > 25000 nM; half-life at 1 μM (in vitro; dog): 1.32 h; half-life at 1 μM (in vitro; human): 2.92 h; half-life at 1 μM (in vitro; rat): 1.28 h

Q: Which results are given for `CN1C[C@H]2C[C@@H]1CN2c1ccc2nc(-c3ccccc3)c(C(=O)N[C@H]3N=C(c4ccccc4)c4cccc(F)c4NC3=O)n2n1` [Example 81, N-[(3S)-9-fluoro-2-oxo-5-phenyl-1,3-dihydro-1,4-benzodiazepin-3-yl]-6-[(1R,4R)-5-methyl-2,5-diazabicyclo[2.2.1]heptan-2-yl]-2-phenylimidazo[1,2-b]pyridazine-3-carboxamide]?
A: EC50 (RSV A2): 114 nM; CC50 (Cell cytotoxicity (CC50)): 8150 nM; half-life at 1 μM (in vitro; dog): 1.88 h; half-life at 1 μM (in vitro; human): 0.488 h; half-life at 1 μM (in vitro; rat): 1.49 h

Q: Which EC50 (RSV A2) does the source give for `O=C(N[C@H]1N=C(c2ccccc2)c2cccc(F)c2NC1=O)c1c(-c2cnc3[nH]ccc3c2)nn2cccnc12` [Example 75, N-[(3S)-9-Fluoro-2-oxo-5-phenyl-1,3-dihydro-1,4-benzodiazepin-3-yl]-2-(1H-pyrrolo[2,3-b]pyridin-5-yl)pyrazolo[1,5-a]pyrimidine-3-carboxamide] here?
A: 44 nM

Q: What about the CC50 (Cell cytotoxicity (CC50)) of the same molecule?
A: > 25000 nM

Q: And the half-life at 1 μM (in vitro; dog)?
A: 1.45 h

Q: And the half-life at 1 μM (in vitro; human)?
A: 11.3 h

Q: And the half-life at 1 μM (in vitro; rat)?
A: 0.833 h

Q: Which EC50 (RSV A2) does the source give for `COc1ccc(-c2nn3cccnc3c2C(=O)N[C@H]2N=C(c3ccccc3)c3ccccc3NC2=O)c(F)c1` [Example 14, 2-(2-Fluoro-4-methoxyphenyl)-N-[(3S)-2-oxo-5-phenyl-1,3-dihydro-1,4-benzodiazepin-3-yl]pyrazolo[1,5-a]pyrimidine-3-carboxamide] here?
A: 41 nM

Q: And the CC50 (Cell cytotoxicity (CC50))?
A: > 25000 nM

Q: What about the half-life at 1 μM (in vitro; dog) of the same molecule?
A: 1.33 h

Q: What about the half-life at 1 μM (in vitro; human) of the same molecule?
A: > 2.33 h

Q: What about the half-life at 1 μM (in vitro; rat) of the same molecule?
A: 2.72 h

Q: Which results are given for `CN1CCN(c2ccc3nc(-c4ccccc4F)c(C(=O)N[C@H]4N=C(c5ccccc5)c5cccc(F)c5NC4=O)n3n2)CC1` [Example 95, N-[(3S)-9-fluoro-2-oxo-5-phenyl-1,3-dihydro-1,4-benzodiazepin-3-yl]-2-(2-fluorophenyl)-6-(4-methylpiperazin-1-yl)imidazo[1,2-b]pyridazine-3-carboxamide]?
A: EC50 (RSV A2): 93 nM; CC50 (Cell cytotoxicity (CC50)): > 21100 nM; half-life at 1 μM (in vitro; dog): 1.11 h; half-life at 1 μM (in vitro; human): 0.948 h; half-life at 1 μM (in vitro; rat): 0.595 h

Q: For `CCNc1ccc2nc(-c3ccccc3F)c(C(=O)N[C@H]3N=C(c4ccccc4)c4cccc(F)c4NC3=O)n2n1` [Example 106, 6-(Ethylamino)-N-[(3S)-9-fluoro-2-oxo-5-phenyl-1,3-dihydro-1,4-benzodiazepin-3-yl]-2-(2-fluorophenyl)imidazo[1,2-b]pyridazine-3-carboxamide], which EC50 (RSV A2) is on record?
A: 66 nM

Q: What about the CC50 (Cell cytotoxicity (CC50)) of the same molecule?
A: > 25000 nM

Q: And the half-life at 1 μM (in vitro; dog)?
A: 4.8 h

Q: And the half-life at 1 μM (in vitro; human)?
A: 0.792 h

Q: And the half-life at 1 μM (in vitro; rat)?
A: 1.46 h

Q: For `COc1ccc2nc(-c3ccccc3)c(C(=O)N[C@H]3N=C(c4ccccc4)c4cccc(F)c4NC3=O)n2n1` [Example 113, N-[(3S)-9-fluoro-2-oxo-5-phenyl-1,3-dihydro-1,4-benzodiazepin-3-yl]-6-methoxy-2-phenylimidazo[1,2-b]pyridazine-3-carboxamide], which EC50 (RSV A2) is on record?
A: 41 nM

Q: And the CC50 (Cell cytotoxicity (CC50))?
A: > 25000 nM

Q: And the half-life at 1 μM (in vitro; dog)?
A: 4.02 h

Q: And the half-life at 1 μM (in vitro; human)?
A: 8.63 h

Q: And the half-life at 1 μM (in vitro; rat)?
A: 1.46 h
